Measured values reported in PMC8578206, “Green Leaf Volatile-Burst in Selaginella moellendorffii” (Frontiers in Plant Science, 2021).

Target: T1, SmHPL1b (Selaginella moellendorffii, UniProt D8RF82)
T1 construct: gene CYP74L1; full ORF from genomic DNA in pET100/D-TOPO (tag kept), E. coli BL21 Star (DE3) membrane fraction
Assay: decrease in absorbance at […] nm
Type: biochemical
Details: E. coli membrane fraction, MES-KOH pH 6.0, 25 °C (methods); optimum pH 5.5

T1 sequence (D8RF82 entry or part of it): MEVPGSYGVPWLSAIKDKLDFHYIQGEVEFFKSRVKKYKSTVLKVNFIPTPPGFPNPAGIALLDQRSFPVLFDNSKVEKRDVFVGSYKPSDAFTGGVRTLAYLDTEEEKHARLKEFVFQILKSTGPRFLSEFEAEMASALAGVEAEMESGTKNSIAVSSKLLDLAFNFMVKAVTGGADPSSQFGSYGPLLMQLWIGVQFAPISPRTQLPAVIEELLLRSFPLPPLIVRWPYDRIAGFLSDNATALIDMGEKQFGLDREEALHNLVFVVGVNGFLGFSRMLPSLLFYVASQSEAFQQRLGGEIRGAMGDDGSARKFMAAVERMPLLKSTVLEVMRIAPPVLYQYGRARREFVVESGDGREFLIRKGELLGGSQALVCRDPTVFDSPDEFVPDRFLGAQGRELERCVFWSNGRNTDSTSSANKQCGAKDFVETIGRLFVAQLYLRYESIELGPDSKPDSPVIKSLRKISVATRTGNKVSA

Q: For CC/C=C\C[C@@H](/C=C/C=C\CCCCCCCC(=O)O)OO [13HPOT, (9Z,11E,15Z)-13-hydroperoxyoctadeca-9,11,15-trienoic acid], which Km is on record?
A: Its Km is 31.4 µM.
